PubChem BioAssay (NCI)
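Tested at 5 concentrations; 48 h exposure; 96-well plates; endpoints linearly interpolated, else capped at highest concentration. GI50 marks 50% less growth. TGI: concentration producing complete growth inhibition.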

Tests used:
Experiment in all cases: inhibition of tumour cell growth, NCI panel, 48 h
[1] = test system: 786-0 renal
[2] = test system: A498 renal
[3] = test system: A549 NSCLC
[4] = test system: ACHN renal
[5] = test system: CAKI-1 renal
[6] = test system: CCRF-CEM leukemia
[7] = test system: COLO 205 colon
[8] = test system: DLD-1 colon
[9] = test system: DMS 114 small cell lung
[10] = test system: DMS 273 small cell lung
[11] = test system: EKVX NSCLC
[12] = test system: HCC-2998 colon
[13] = test system: HCT-116 colon
[14] = test system: HCT-15 colon
[15] = test system: HL-60(TB) leukemia
[16] = test system: HOP-18 NSCLC
[17] = test system: HOP-62 NSCLC
[18] = test system: HOP-92 NSCLC
[19] = test system: HT29 colon
[20] = test system: IGROV1 ovarian
[21] = test system: K-562 leukemia
[22] = test system: KM12 colon
[23] = test system: KM20L2 colon
[24] = test system: LOX IMVI melanoma
[25] = test system: LXFL 529 NSCLC
[26] = test system: M14 melanoma
[27] = test system: M19-MEL melanoma
[28] = test system: MALME-3M melanoma
[29] = test system: MOLT-4 leukemia
[30] = test system: NCI-H226 lung
[31] = test system: NCI-H23 lung
[32] = test system: NCI-H460 lung
[33] = test system: NCI-H522 lung
[34] = test system: OVCAR-3 ovarian
[35] = test system: OVCAR-4 ovarian
[36] = test system: OVCAR-5 ovarian
[37] = test system: OVCAR-8 ovarian
[38] = test system: RXF 393 renal
[39] = test system: SF-268 CNS
[40] = test system: SF-295 CNS
[41] = test system: SF-539 CNS
[42] = test system: SK-MEL-28 melanoma
[43] = test system: SK-MEL-5 melanoma
[44] = test system: SN12C renal
[45] = test system: SNB-19 CNS
[46] = test system: SNB-75 CNS
[47] = test system: SNB-78 CNS
[48] = test system: SR leukemia
[49] = test system: SW-620 colon
[50] = test system: TK-10 renal
[51] = test system: U251 CNS
[52] = test system: UACC-257 melanoma
[53] = test system: UACC-62 melanoma
[54] = test system: UO-31 renal
[55] = test system: SK-MEL-2 melanoma
[56] = test system: SK-OV-3 ovarian
[57] = test system: XF 498 CNS

CC(=O)[O-].CCN(CC)c1ccc(C=NCCN=Cc2ccc(N(CC)CC)cc2[O-])c([O-])c1.[Mn+3]
GI50 [1]: 38.7 µM | TGI [1]: > 100 µM | GI50 [2]: 22.9 µM | TGI [2]: 53.1 µM | GI50 [3]: 34.5 µM | TGI [3]: > 100 µM | GI50 [4]: > 100 µM | TGI [4]: > 100 µM | GI50 [5]: > 100 µM | TGI [5]: > 100 µM | GI50 [6]: 42 µM | TGI [6]: > 100 µM | GI50 [7]: 18.6 µM | TGI [7]: 32.8 µM | GI50 [8]: 55.2 µM | TGI [8]: > 100 µM | GI50 [9]: 19.6 µM | TGI [9]: 35.8 µM | GI50 [10]: 22.4 µM | TGI [10]: 45.8 µM | GI50 [11]: 39.6 µM | TGI [11]: > 100 µM | GI50 [12]: 19.7 µM | TGI [12]: 35.9 µM | GI50 [13]: 18.5 µM | TGI [13]: 33.3 µM | GI50 [14]: > 100 µM | TGI [14]: > 100 µM | GI50 [15]: 17.6 µM | TGI [15]: 38.3 µM | GI50 [16]: 18.7 µM | TGI [16]: 35.5 µM | GI50 [17]: 19.2 µM | TGI [17]: 39.1 µM | GI50 [18]: 38.3 µM | TGI [18]: 93.9 µM | GI50 [19]: 19.9 µM | TGI [19]: 40.1 µM | GI50 [20]: 29.6 µM | TGI [20]: 80.3 µM | GI50 [21]: 22.9 µM | TGI [21]: 61.3 µM | GI50 [22]: 17.8 µM | TGI [22]: 33.7 µM | GI50 [23]: 17.8 µM | TGI [23]: 33.2 µM | GI50 [24]: 20.3 µM | TGI [24]: 37.6 µM | GI50 [25]: 22.5 µM | TGI [25]: 44.1 µM | GI50 [26]: 19.2 µM | TGI [26]: 35.5 µM | GI50 [27]: 17.7 µM | TGI [27]: 32.4 µM | GI50 [28]: 18.4 µM | TGI [28]: 35.2 µM | GI50 [29]: 36.5 µM | TGI [29]: > 100 µM | GI50 [30]: 64.4 µM | TGI [30]: > 100 µM | GI50 [31]: 19.7 µM | TGI [31]: 37.6 µM | GI50 [32]: 21.3 µM | TGI [32]: 43.5 µM | GI50 [33]: 43.3 µM | TGI [33]: 61.9 µM | GI50 [34]: 21 µM | TGI [34]: 44.1 µM | GI50 [35]: 37.3 µM | TGI [35]: > 100 µM | GI50 [36]: 21.3 µM | TGI [36]: 41 µM | GI50 [37]: 24.5 µM | TGI [37]: 57 µM | GI50 [38]: 20.5 µM | TGI [38]: 46.5 µM | GI50 [39]: 23.8 µM | TGI [39]: 52.7 µM | GI50 [40]: 27.7 µM | TGI [40]: 71.8 µM | GI50 [41]: 20.9 µM | TGI [41]: 37.4 µM | GI50 [42]: 19.2 µM | TGI [42]: 37.8 µM | GI50 [43]: 19 µM | TGI [43]: 33.9 µM | GI50 [44]: 20.9 µM | TGI [44]: 48.8 µM | GI50 [45]: 19.9 µM | TGI [45]: 42.8 µM | GI50 [46]: 22.1 µM | TGI [46]: 58.2 µM | GI50 [47]: 45.1 µM | TGI [47]: > 100 µM | GI50 [48]: 22.3 µM | TGI [48]: 67.4 µM | GI50 [49]: 27.4 µM | TGI [49]: 66.4 µM | GI50 [50]: 56.6 µM | TGI [50]: > 100 µM | GI50 [51]: 15.4 µM | TGI [51]: 29.3 µM | GI50 [52]: 23 µM | TGI [52]: 55.5 µM | GI50 [53]: 25.7 µM | TGI [53]: 57.5 µM | GI50 [54]: > 100 µM | TGI [54]: > 100 µM

COC1C=CC(O)C(CO)O1 (stereo not given)
TGI [3]: > 100 µM | TGI [4]: > 100 µM | TGI [6]: > 100 µM | TGI [8]: > 100 µM | TGI [11]: > 100 µM | TGI [12]: > 100 µM | TGI [13]: > 100 µM | TGI [14]: > 100 µM | TGI [15]: > 100 µM | TGI [17]: > 100 µM | TGI [18]: > 100 µM | TGI [19]: > 100 µM | TGI [20]: > 100 µM | TGI [21]: > 100 µM | TGI [22]: > 100 µM | TGI [23]: > 100 µM | TGI [24]: > 100 µM | TGI [25]: > 100 µM | TGI [26]: > 100 µM | TGI [27]: > 100 µM | TGI [28]: > 100 µM | TGI [29]: > 100 µM | TGI [31]: > 100 µM | TGI [32]: > 100 µM | TGI [33]: > 100 µM | TGI [34]: > 100 µM | TGI [35]: > 100 µM | TGI [36]: > 100 µM | TGI [37]: > 100 µM | TGI [38]: > 100 µM | TGI [40]: > 100 µM | TGI [41]: > 100 µM | TGI [55]: > 100 µM | TGI [42]: > 100 µM | TGI [43]: > 100 µM | TGI [56]: > 100 µM | TGI [44]: > 100 µM | TGI [46]: > 100 µM | TGI [47]: > 100 µM | TGI [48]: > 100 µM | TGI [49]: > 100 µM | TGI [50]: > 100 µM | TGI [51]: > 100 µM | TGI [52]: > 100 µM | TGI [53]: > 100 µM | TGI [54]: > 100 µM | TGI [57]: > 100 µM
